Results: the NIST ThermoML archive (doi:10.1016/j.jct.2004.09.009)

Legend:
[1] = Liquid; for mass density: 298.15 K, 101.33 kPa, Vibrating tube method; for vapor or sublimation pressure / Normal boiling temperature: Ebulliometric method (Recirculating still)
[2] = xn = mol fraction of the nth substance listed; details: 101.3 kPa, Liquid

CCC(C)O (stereo not given) [butan-2-ol]
[1]
Details | Normal boiling temperature [°C] | mass density [kg/m3]
– | 99.19 | 802.4

[1]
Details | vapor or sublimation pressure [kPa]
355.98 K | 53.32
358.8 K | 59.98
361.41 K | 66.64
363.82 K | 73.31
366.02 K | 79.97
368.13 K | 86.64
370.09 K | 93.3
370.83 K | 95.97
371.54 K | 98.63
372.34 K | 101.3
373.09 K | 103.97
373.79 K | 106.63
375.46 K | 113.3
377.04 K | 119.96
378.57 K | 126.63
380.02 K | 133.29
381.42 K | 139.95
382.76 K | 146.62
384.06 K | 153.28
385.31 K | 159.95
386.52 K | 166.61
387.69 K | 173.28
388.83 K | 179.94
389.94 K | 186.61
391 K | 193.27
392.05 K | 199.93
393.07 K | 206.6
394.07 K | 213.26
395.06 K | 219.93
396.01 K | 226.59
396.94 K | 233.26
397.86 K | 239.92
398.76 K | 246.59
399.64 K | 253.25
400.48 K | 259.91
401.34 K | 266.58
402.19 K | 273.24
402.98 K | 279.91
403.77 K | 286.57
404.56 K | 293.24
405.32 K | 299.9

CCOC(=O)OCC [diethyl carbonate]
[1]
Details | Normal boiling temperature [°C] | mass density [kg/m3]
– | 126.17 | 969.24

CCOC(=O)OCC [diethyl carbonate] + CC1CCCCC1
mass density [kg/m3], [2]
Details | 293.15 K | 298.15 K | 303.15 K | 308.15 K | 313.15 K
x1 = 0.0473 | 777.44 | 773.05 | 768.64 | 764.22 | 759.78
x1 = 0.0978 | 786.43 | 781.97 | 777.5 | 773 | 768.48
x1 = 0.1985 | 804.96 | 800.36 | 795.73 | 791.09 | 786.42
x1 = 0.2968 | 823.73 | 818.99 | 814.23 | 809.44 | 804.6
x1 = 0.3924 | 842.56 | 837.7 | 832.8 | 827.88 | 822.9
x1 = 0.4993 | 864.26 | 859.23 | 854.18 | 849.14 | 844.04
x1 = 0.5999 | 885.33 | 880.2 | 875.04 | 869.85 | 864.64
x1 = 0.6985 | 906.48 | 901.24 | 895.95 | 890.65 | 885.31
x1 = 0.7988 | 928.64 | 923.28 | 917.88 | 912.46 | 907.02
x1 = 0.8996 | 951.53 | 946.06 | 940.54 | 935.01 | 929.44
x1 = 0.9509 | 963.41 | 957.86 | 952.29 | 946.7 | 941.08
x1 = 1 | 974.83 | 969.24 | 963.61 | 957.96 | 952.29
